Reference: paper PMC8415315, “Maternal Serotonin Reuptake Inhibitor Antidepressants Have Acute Effects on Fetal Heart Rate Variability in Late Gestation” (Frontiers in Psychiatry, 2021)
Where two headings read alike, the source gives them in different places.

Key:
[1] = Maternal plasma drug concentrations by HPLC tandem mass spectrometry at 36-weeks' gestation; conditions: for Δ T3-T0, change in dose-adjusted plasma concentration: mean ± SE, from baseline (T0) to post-dose 3 (T3); for Pharmacokinetic phase at the post-dose fetal assessment: reached Cmax
Text: To investigate chronic and acute SRI effects on the fetus, SRI-treated women were asked to withhold their typical morning oral dose until ~10h00, resulting in the AM/baseline and PM fetal assessments corresponding to pre-dose and post-dose periods, respectively. To characterize concurrent SRI pharmacokinetics across the study protocol, plasma drug concentrations were quantified at baseline (pre-dose) and four time-points post-dose; details on the drug level assay and pharmacologic variables are described below. Timing for each component of this study considered the need for a sufficient antidepressant baseline (pharmacologic trough), half-life, and time-to-peak plasma levels, weighted against length of study in effort to minimize maternal discomfort/inconvenience and potential effects of diurnal variations in the fetal variables obtained.
Changes in maternal plasma drug concentration between fetal assessments were determined by analyzing blood samples from SRI-treated mothers pre-dose (T0, baseline levels; ~08h00) and at four time-points post-dose: T1 (~10h30), T2 (~12h30), T3 (~13h30), and T4 (~14h30). Serum was separated by centrifugation at 3,000 × g for 10 min, transferred to polypropylene tubes and stored at −70°C until analysis. High performance liquid chromatography tandem mass spectrometry, performed offsite (CANTEST Ltd.; Burnaby, Canada), was used to determine levels of fluoxetine, norfluoxetine, paroxetine, sertraline, citalopram, escitalopram and venlafaxine.
Plasma drug concentrations were adjusted for maternal oral dose (ng/ml·mg). To quantify the relative change in maternal SRI level between the pre- and post-dose fetal assessments, the difference in dose-adjusted plasma drug concentration between T0 and T3 was determined. Plasma concentrations for metabolites were not reported as they reflect parent drugs.

[2] = Non-compartmental pharmacokinetic analysis of maternal SRI plasma levels; type: in vivo, human; conditions: for AUC(0-t) / Cmax: female, human, 36-weeks' gestation, daily oral dose; for AUC(0-t) / Cmax / Tpeak: mean ± SE; for AUC(0-t): area under the curve from T0 (baseline) to last measured plasma concentration (T4), SRI-treated women; for Cmax: maximum (peak) maternal plasma drug concentration; for Tpeak: time from baseline (T0) to reach Cmax, oral dose about 1.8 h after T0
Description: Maternal SRI plasma levels were further characterized by performing a non-compartmental pharmacokinetic analysis, yielding estimates of maximum plasma drug concentration (Cmax), time-to-peak (Tpeak) and area under the curve (AUClast). Pharmacokinetic variables were calculated using the PKNCA R package ([73]).

[3] = design: method as in PMID 26765210; conditions: rodents; 2-h after maternal drug administration; ref [83]; cited from earlier work
[4] = known value the observation is said to be consistent with; no reference given; cited from earlier work
[5] = system: fetal HR; conditions: acute exposure; ref [49]; cited from earlier work

Δ T3-T0, change in dose-adjusted plasma concentration [1] [ng/ml·mg]	Pharmacokinetic phase at the post-dose fetal assessment [1]	AUC(0-t) [2] [ng·h/mL]	Cmax [2] [ng/mL]	Tpeak [2] [h]	Pharmacokinetic phase by the last blood collection (T4) ([1]; listed as fluoxetine)	AUClast, total observed maternal drug exposure during study protocol (rank among antidepressants) [2]	Structure (SMILES)	Fetal citalopram exposure relative to the mother [3]	Pharmacokinetic phase by the last blood collection (T4) [1]	Tpeak [4] [h]	Effect on fetal HR variability [5]
3.2 ± 1.0	early elimination phase	906 ± 271	274 ± 92	4.9 ± 0.14			CN(C)CCCC1(c2ccc(F)cc2)OCc2cc(C#N)ccc21 (stereo not shown) [Citalopram]	exceed that of the mother			
4.3 ± 2.5		3220 ± 1920	613 ± 342	5.8 ± 1.0	still in the absorption phase	highest	CNCCC(Oc1ccc(C(F)(F)F)cc1)c1ccccc1 (stereo not shown) [Fluoxetine]		absorption phase	6 to 8	
0.13 ± 0.21	early elimination phase	125 ± 66	24 ± 5.2	4.6 ± 0.04		lowest	Fc1ccc([C@@H]2CCNC[C@H]2COc2ccc3c(c2)OCO3)cc1 [Paroxetine]				
0.71 ± 0.53	early elimination phase	728 ± 256	197 ± 105	5.3 ± 0.18			CN[C@H]1CC[C@@H](c2ccc(Cl)c(Cl)c2)c2ccccc21 [Sertraline]				
							CN1CCC[C@H]1c1cccnc1 [nicotine]				decreased

Structure (SMILES)	Δ T3-T0, change in dose-adjusted plasma concentration [1] [ng/ml·mg]	Pharmacokinetic phase at the post-dose fetal assessment [1]	AUC(0-t) [2] [ng·h/mL]	Cmax [2] [ng/mL]	Tpeak [2] [h]	Pharmacokinetic phase by the last blood collection (T4) ([1]; listed as fluoxetine)	AUClast, total observed maternal drug exposure during study protocol (rank among antidepressants) [2]	Fetal citalopram exposure relative to the mother [3]	Pharmacokinetic phase by the last blood collection (T4) [1]	Tpeak [4] [h]	Effect on fetal HR variability [5]
COc1ccc(C(CN(C)C)C2(O)CCCCC2)cc1 (stereo not shown) [Venlafaxine]	0.43 ± 0.13		621 ± 314	163 ± 74	5.7 ± 0.30				still in the absorption phase		
